Experimental data taken from publication PMC8958505, “Discovery of Potential Neuroprotective Agents against Paclitaxel-Induced Peripheral Neuropathy” (Journal of Medicinal Chemistry, 2022).

Tests used:
[1] = system: primary cortical neurons; assay: Neurite outgrowth assay of primary cortical neurons (image-based HCS) against paclitaxel-induced neurotoxicity; format: cell-based, mouse; settings: for activity at 0.01 µM / activity at 1 µM: Mus musculus, Primary cortical neuron; for activity at 0.01 µM / C: Neurite outgrowth (% of control) of test compound (10 nM) + paclitaxel (1 μM): test compound 10 nM + paclitaxel 1 μM; for activity at 0.01 µM / activity at 1 µM / C: Neurite outgrowth (% of control) of test compound (10 nM) + paclitaxel (1 μM) / D: Neurite outgrowth (% of control) of test compound (1000 nM) + paclitaxel (1 μM): mean ± SE; for activity at 0.01 µM: read-out: C: Neurite outgrowth (% of control) of test compound (10 nM) + paclitaxel (1 μM); for activity at 1 µM / D: Neurite outgrowth (% of control) of test compound (1000 nM) + paclitaxel (1 μM): test compound 1000 nM + paclitaxel 1 μM; for activity at 1 µM: read-out: D: Neurite outgrowth (% of control) of test compound (1000 nM) + paclitaxel (1 μM)
Excerpt: (§1) Herein, we wish to report that an in vitro neurite outgrowth assay of cortical neurons integrated with an image-based high-content screening (HCS) platform is used to evaluate a commercially available library of 78 minoxidil-related derivatives,[22] leading to the identification of a series of analogues able to prevent or alleviate paclitaxel-induced neurotoxicity. The project began with screening compounds with the primary culture of cortical neurons from neonatal mice. More specifically, cerebral cortex neurons cultured from P0 C57BL/6J mouse pups were incubated with a test compound (10 and 1000 nM) prior to paclitaxel (1 μM) treatment. Subsequently, both neurite outgrowth and synaptogenesis were measured to evaluate the test compounds’ neuroprotective capacity. […] This unique feature is preserved for the core-structure screening of our in-house library in the following subject. Moreover, the substituent at the C4 position appears flexible in terms of structural diversity. Collectively, CSV0A024807, the only one displaying the best neuroprotective potency on both neurite outgrowth and synaptogenesis assays, was thus elected as a potential hit compound for further development.
(§2) Primary cortical or DRG cells were fixed with 4% paraformaldehyde for 15 min following compound and paclitaxel treatment. After washing with PBS, the fixed cells were permeabilized with PBS containing 0.05% Triton X-100 for 20 min and then blocked with commercial blocking buffer (#GTX30963; GeneTex, USA) at room temperature for 1 h. Subsequently, the cortical cells were stained for the extending processes and synaptic puncta by using anti-MAP2 (#MBS502140, 1:500; Mybiosource, USA) and anti-synaptophysin (#ab32127, 1:500; Abcam, UK) overnight. DRG cells were stained for the neurite and neuron nucleus by using anti-β III tubulin (#D71G9, 1:600; Cell Signaling, USA) and anti-NeuN monoclonal antibody (#MAB377, 1:400; Millipore, USA) overnight. On the second day, the samples were washed for 30 min with wash buffer and incubated with secondary antibodies (Alexa-488, 647 1:600; Thermo Fisher, USA) and 4 μg/mL Hoechst 33258 (#94403-1ML, 1:100; Merck, USA) at room temperature for 1 h. In the initial experiments of screening the potential neuroprotective compound for CIPN, ImageXpress^Micro (IXM) high-content imaging system (Molecular Devices, USA) driven by MetaXpress software was used. Images of treated cells were automatically acquired by using a 10× objective. Twenty-one images per well were taken in each of three channels (DAPI, FITC, and Cy5) to create a whole view of the entire neural network. The integrity of the neural network was evaluated using TIF images by importing them into MetaXpress software for analysis using the module for multiparameter, such as Neurite Outgrowth, Cell Scoring, and Transfluor. Furthermore, the score of synaptogenesis was analyzed in AcuityXpress software (Molecular Devices, USA).

[2] = system: primary cortical neurons; assay: Synaptogenesis assay of primary cortical neurons (image-based HCS) against paclitaxel-induced neurotoxicity; format: cell-based, mouse; settings: for activity at 0.01 µM / activity at 1 µM: Mus musculus, Primary cortical neuron; for activity at 0.01 µM / A: Synaptogenesis (% of control) of test compound (10 nM) + paclitaxel (1 μM): test compound 10 nM + paclitaxel 1 μM; for activity at 0.01 µM / activity at 1 µM / A: Synaptogenesis (% of control) of test compound (10 nM) + paclitaxel (1 μM) / B: Synaptogenesis (% of control) of test compound (1000 nM) + paclitaxel (1 μM): mean ± SE; for activity at 0.01 µM: read-out: A: Synaptogenesis (% of control) of test compound (10 nM) + paclitaxel (1 μM); for activity at 1 µM / B: Synaptogenesis (% of control) of test compound (1000 nM) + paclitaxel (1 μM): test compound 1000 nM + paclitaxel 1 μM; for activity at 1 µM: read-out: B: Synaptogenesis (% of control) of test compound (1000 nM) + paclitaxel (1 μM); for attenuation of synaptogenesis inhibited by paclitaxel (in words): test compound 10 and 1000 nM prior to paclitaxel 1 μM, Figure 1A
Excerpt: as §1, §2

Row | Structure (SMILES) | activity at 0.01 µM [1] [%] | activity at 1 µM [1] [%] | activity at 0.01 µM [2] [%] | activity at 1 µM [2] [%] | C: Neurite outgrowth (% of control) of test compound (10 nM) + paclitaxel (1 μM) [1] | D: Neurite outgrowth (% of control) of test compound (1000 nM) + paclitaxel (1 μM) [1] | A: Synaptogenesis (% of control) of test compound (10 nM) + paclitaxel (1 μM) [2] | B: Synaptogenesis (% of control) of test compound (1000 nM) + paclitaxel (1 μM) [2] | rescue of neuronal damage caused by paclitaxel (immunofluorescence images) ([1]; pretreated, primary cortical neuron culture, Figure 1B) | protective effect in the neurite outgrowth assay (in words) ([1]; test compound 10 and 1000 nM prior to paclitaxel 1 μM, Figure 1A) | attenuation of synaptogenesis inhibited by paclitaxel (in words) [2]
1 | CCN(CC)c1ccc(/C=N/Nc2cc(N3CCCCC3)nc(N3CCCCC3)n2)cc1 [CSV0A023090] | 57 ± 4 | 58 ± 3 | 82 ± 4 | 86 ± 0.4 | – | – | – | – | – | – | –
2 | CCN(CC)c1ccc(/C=N/Nc2cc(N3CCOCC3)nc(N3CCOCC3)n2)cc1 [CSV0A024804] | 68 ± 2 | 66 ± 1 | 67 ± 8 | 62 ± 3 | – | – | – | – | – | – | –
3 | O=[N+]([O-])c1ccc(/C=N/Nc2cc(N3CCOCC3)nc(N3CCOCC3)n2)cc1 [CSV0A024806] | – | – | – | – | 70±3 % of control | 68±6 % of control | 68±6 % of control | 78±5 % of control | – | – | –
4 | O=[N+]([O-])c1cccc(/C=N/Nc2cc(N3CCOCC3)nc(N3CCOCC3)n2)c1 [CSV0A024807] | 69 ± 3 | 60 ± 1 | 92 ± 2 | 97 ± 2 | – | – | – | – | significantly rescued | significant protective effect | significantly attenuated
5 | Clc1ccc(/C=N/Nc2cc(N3CCOCC3)nc(N3CCOCC3)n2)cc1 [CSV0A024808] | 91 ± 1 | 89 ± 4 | 27 ± 1 | 25 ± 1 | – | – | – | – | – | – | –
6 | C(=N\Nc1cc(N2CCOCC2)nc(N2CCOCC2)n1)/c1ccncc1 [CSV0A024809] | 77 ± 2 | 82 ± 3 | 38 ± 3 | 27 ± 0.5 | – | – | – | – | – | – | –
7 | O=[N+]([O-])c1cc(/C=N/Nc2cc(N3CCCCCC3)nc(N3CCCCCC3)n2)cc2c1OCO2 [CSV0A024811] | 69 ± 7 | 60 ± 3 | 52 ± 1 | 46 ± 4 | – | – | – | – | – | – | –
8 | O=[N+]([O-])c1ccc(/C=N/Nc2cc(N3CCCC3)nc(N3CCCC3)n2)cc1 [CSV0A024812] | 53 ± 3 | 60 ± 1 | 55 ± 6 | 62 ± 3 | – | – | – | – | – | – | –
9 | COc1ccc(/C=N/Nc2cc(N3CCCC3)nc(N3CCCC3)n2)cc1 [CSV0A024813] | 66 ± 2 | 63 ± 2 | 98 ± 4 | 81 ± 5 | – | – | – | – | – | – | significantly attenuated
10 | Clc1ccc(/C=N/Nc2cc(N3CCCC3)nc(N3CCCC3)n2)cc1 [CSV0A024814] | 81 ± 0.005 | 67 ± 2 | 46 ± 1 | 31 ± 1 | – | – | – | – | – | – | –
11 | Clc1ccc(/C=N/Nc2cc(N3CCCCCC3)nc(N3CCCCCC3)n2)cc1 [CSV0A027457] | 62 ± 4 | 51 ± 4 | 51 ± 4 | 39 ± 4 | – | – | – | – | – | – | –
12 | CN(C)c1cc(N/N=C/c2cccc([N+](=O)[O-])c2)nc(N(C)C)n1 [CSV0A027458] | 71 ± 3 | 65 ± 3 | 73 ± 3 | 73 ± 3 | – | – | – | – | – | – | –
13 | CN(C)c1cc(N/N=C/c2ccc(Cl)cc2)nc(N(C)C)n1 [CSV0A027459] | 76 ± 7 | 79 ± 11 | 35 ± 1 | 37 ± 2 | – | – | – | – | – | – | –
14 | CN(C)c1ccc(/C=N/Nc2cc(N3CCCC3)nc(N3CCCC3)n2)cc1 [CSV0A027460] | 77 ± 1 | 63 ± 3 | 47 ± 1 | 33 ± 3 | – | – | – | – | – | – | –
15 | CCN(CC)c1cc(N/N=C/c2ccncc2)nc(N(CC)CC)n1 [CSV0A029945] | 41 ± 8 | 75 ± 8 | 35 ± 6 | 50 ± 0.3 | – | – | – | – | – | – | –
16 | CN(C)c1cc(N/N=C/c2ccccc2O)nc(N(C)C)n1 [CSV0A034003] | – | – | – | – | 61±3 % of control | 62±3 % of control | 67±5 % of control | 66±9 % of control | – | – | –
